Measurements: the supplement of paper PMC13380429

Key:
[1] = test system: A549-ACE2 infected with SARS-CoV-2; test: morphology score (similarity to uninfected cells); higher = more like uninfected cells; conditions: 24 h
[2] = test system: A549-ACE2; test: drug-induced phospholipidosis relative to tamoxifen; higher = more phospholipidosis
[3] = test system: Vero E6; test: relative viability EC50 (midpoint between 100% and the lowest measured viability); higher = less toxic; conditions: 72 h
[4] = test system: U2OS; test: as above; conditions: 72 h
[5] = test system: Calu-3; test: as above; conditions: 72 h
[6] = test system: A549-ACE2 infected with SARS-CoV-2; test: cell count relative to DMSO; higher = less toxic; conditions: 24 h
[7] = test system: A549-ACE2 infected with SARS-CoV-2; test: SARS-CoV-2 infection rate relative to DMSO; higher = more infection; conditions: 24 h
[8] = test system: Vero E6; test: drug sensitivity score (DSS) for viability; higher = more toxic; extreme values may be limits of the assay; conditions: 72 h
[9] = test system: U2OS; test: as above; conditions: 72 h
[10] = test system: HepG2; test: as above; conditions: 72 h
[11] = test system: Calu-3; test: as above; conditions: 72 h
[12] = test system: Caco-2; test: as above; conditions: 72 h
[13] = test system: A549-ACE2; test: phospholipidosis EC50; higher = less potent phospholipidosis inducer
[14] = test system: Vero E6; test: cell viability relative to DMSO; higher = less toxic; conditions: 72 h
[15] = test system: U2OS; test: as above; conditions: 72 h
[16] = test system: HepG2; test: as above; conditions: 72 h
[17] = test system: Calu-3; test: as above; conditions: 72 h
[18] = test system: Caco-2; test: as above; conditions: 72 h
[19] = test system: HepG2; test: relative viability EC50 (midpoint between 100% and the lowest measured viability); higher = less toxic; conditions: 72 h
[20] = test system: Caco-2; test: as above; conditions: 72 h

C[C@@H](O[C@H]1OCCN(Cc2nn[nH]c2CN(C)C)[C@H]1c1ccc(F)cc1)c1cc(C(F)(F)F)cc(C(F)(F)F)c1
Conditions	SARS-CoV-2 infection rate [%]	cell count [%]	cell viability [%]	morphology score	phospholipidosis EC50 [µM]
[1], 0.3 µM	–	–	–	0.33	–
[1], 3 µM	–	–	–	0.54	–
[1], 10 µM	–	–	–	0.79	–
[1], 30 µM	–	–	–	0.29	–
[6], 0.3 µM	–	104	–	–	–
[6], 3 µM	–	107	–	–	–
[6], 10 µM	–	114	–	–	–
[6], 30 µM	–	96	–	–	–
[7], 0.3 µM	94	–	–	–	–
[7], 3 µM	67	–	–	–	–
[7], 10 µM	21	–	–	–	–
[7], 30 µM	29	–	–	–	–
[13], 24 h	–	–	–	–	3.41
[13], 48 h	–	–	–	–	3.74
[13], 72 h	–	–	–	–	4.73
[14], 1 nM	–	–	91	–	–
[14], 10 nM	–	–	102	–	–
[14], 100 nM	–	–	95	–	–
[14], 1000 nM	–	–	96.9	–	–
[14], 10000 nM	–	–	82.8	–	–
[15], 1 nM	–	–	98.8	–	–
[15], 10 nM	–	–	96.9	–	–
[15], 100 nM	–	–	105	–	–
[15], 1000 nM	–	–	98.6	–	–
[15], 10000 nM	–	–	75.9	–	–
[16], 1 nM	–	–	90.8	–	–
[16], 10 nM	–	–	91.5	–	–
[16], 100 nM	–	–	87.5	–	–
[16], 1000 nM	–	–	110	–	–
[16], 10000 nM	–	–	69.1	–	–
[17], 1 nM	–	–	93.6	–	–
[17], 10 nM	–	–	93.9	–	–
[17], 100 nM	–	–	91.8	–	–
[17], 1000 nM	–	–	97.5	–	–
[17], 10000 nM	–	–	75.1	–	–
[18], 1 nM	–	–	97	–	–
[18], 10 nM	–	–	94.6	–	–
[18], 100 nM	–	–	99.9	–	–
[18], 1000 nM	–	–	103	–	–
[18], 10000 nM	–	–	70.7	–	–

drug-induced phospholipidosis [%], [2]
Conditions	0.3 µM	0.833333 µM	3.33333 µM	6.66667 µM	10 µM
24 h	0.77	3.06	53.9	92.5	102
48 h	1.56	0.335	38.1	83.7	91.7
72 h	2.71	0.0731	32.7	80.6	99.1

Conditions	drug sensitivity score	relative viability EC50 [µM]
[3]	–	> 10
[4]	–	> 10
[5]	–	> 10
[8]	0.7	–
[9]	1.1	–
[10]	0.9	–
[11]	1.3	–
[12]	1.1	–

Nc1nc(NC[C@H]2CC[C@H](CNS(=O)(=O)c3cccc4ccccc34)CC2)nc2ccccc12
Conditions	SARS-CoV-2 infection rate [%]	cell count [%]	cell viability [%]	morphology score	phospholipidosis EC50 [µM]
[1], 0.1 µM	–	–	–	0.06	–
[1], 0.3 µM	–	–	–	-0.01	–
[1], 1 µM	–	–	–	0.19	–
[1], 3 µM	–	–	–	0.63	–
[6], 0.1 µM	–	105	–	–	–
[6], 0.3 µM	–	101	–	–	–
[6], 1 µM	–	101	–	–	–
[6], 3 µM	–	123	–	–	–
[7], 0.1 µM	101	–	–	–	–
[7], 0.3 µM	95	–	–	–	–
[7], 1 µM	90	–	–	–	–
[7], 3 µM	12	–	–	–	–
[13], 24 h	–	–	–	–	1.03
[13], 48 h	–	–	–	–	3.12
[13], 72 h	–	–	–	–	6.11
[14], 1 nM	–	–	97	–	–
[14], 10 nM	–	–	95.8	–	–
[14], 100 nM	–	–	99.9	–	–
[14], 1000 nM	–	–	91.6	–	–
[14], 10000 nM	–	–	4	–	–
[15], 1 nM	–	–	101	–	–
[15], 10 nM	–	–	101	–	–
[15], 100 nM	–	–	98.5	–	–
[15], 1000 nM	–	–	96.8	–	–
[15], 10000 nM	–	–	3.6	–	–
[16], 1 nM	–	–	98.2	–	–
[16], 10 nM	–	–	99.6	–	–
[16], 100 nM	–	–	101	–	–
[16], 1000 nM	–	–	86.3	–	–
[16], 10000 nM	–	–	0.8	–	–
[17], 1 nM	–	–	89.3	–	–
[17], 10 nM	–	–	95.8	–	–
[17], 100 nM	–	–	98.8	–	–
[17], 1000 nM	–	–	98.1	–	–
[17], 10000 nM	–	–	0.9	–	–
[18], 1 nM	–	–	102	–	–
[18], 10 nM	–	–	97.4	–	–
[18], 100 nM	–	–	93.8	–	–
[18], 1000 nM	–	–	95	–	–
[18], 10000 nM	–	–	12.7	–	–

drug-induced phospholipidosis [%], [2]
Conditions	0.3 µM	0.833333 µM	3.33333 µM	6.66667 µM	10 µM	30 µM
24 h	4.45	16.1	78.1	111	51.3	58.3
48 h	5.61	11.2	82	124	–	–
72 h	6.01	9.91	62.8	129	–	–

Conditions	drug sensitivity score	relative viability EC50 [µM]
[3]	–	2.44
[4]	–	2.92
[5]	–	3.03
[8]	6.7	–
[9]	5.8	–
[10]	7.8	–
[11]	5.8	–
[12]	5.6	–
[19]	–	2.06
[20]	–	2.71

CN1C2CCC1CC(OC(c1ccccc1)c1ccc(Cl)cc1)C2 (stereo not given) [3-CPMT]
Conditions	SARS-CoV-2 infection rate [%]	cell count [%]	cell viability [%]	morphology score	phospholipidosis EC50 [µM]
[1], 0.1 µM	–	–	–	-0.03	–
[1], 0.3 µM	–	–	–	-0.04	–
[1], 1 µM	–	–	–	0.58	–
[1], 3 µM	–	–	–	0.88	–
[6], 0.1 µM	–	105	–	–	–
[6], 0.3 µM	–	99	–	–	–
[6], 1 µM	–	116	–	–	–
[6], 3 µM	–	123	–	–	–
[7], 0.1 µM	108	–	–	–	–
[7], 0.3 µM	96	–	–	–	–
[7], 1 µM	74	–	–	–	–
[7], 3 µM	32	–	–	–	–
[13], 24 h	–	–	–	–	3.84
[13], 48 h	–	–	–	–	4.5
[13], 72 h	–	–	–	–	4.56
[14], 1 nM	–	–	93.5	–	–
[14], 10 nM	–	–	97.3	–	–
[14], 100 nM	–	–	94.5	–	–
[14], 1000 nM	–	–	96.6	–	–
[14], 10000 nM	–	–	70.6	–	–
[15], 1 nM	–	–	104	–	–
[15], 10 nM	–	–	96.9	–	–
[15], 100 nM	–	–	100	–	–
[15], 1000 nM	–	–	97.1	–	–
[15], 10000 nM	–	–	72.6	–	–
[16], 1 nM	–	–	99.3	–	–
[16], 10 nM	–	–	110	–	–
[16], 100 nM	–	–	97.6	–	–
[16], 1000 nM	–	–	98.6	–	–
[16], 10000 nM	–	–	59.5	–	–
[17], 1 nM	–	–	107	–	–
[17], 10 nM	–	–	109	–	–
[17], 100 nM	–	–	106	–	–
[17], 1000 nM	–	–	91.3	–	–
[17], 10000 nM	–	–	55.1	–	–
[18], 1 nM	–	–	94.2	–	–
[18], 10 nM	–	–	89.7	–	–
[18], 100 nM	–	–	91.5	–	–
[18], 1000 nM	–	–	94.9	–	–
[18], 10000 nM	–	–	76.4	–	–

drug-induced phospholipidosis [%], [2]
Conditions	0.3 µM	0.833333 µM	3.33333 µM	6.66667 µM	10 µM	30 µM
24 h	4.71	3.97	55.2	83.2	94.4	114
48 h	7.06	3.72	51.9	88.1	103	126
72 h	7.88	7.28	40	85.2	102	–

Conditions	drug sensitivity score	relative viability EC50 [µM]
[8]	1.8	–
[9]	1.6	–
[10]	2.2	–
[11]	3.7	–
[12]	1.3	–
[20]	–	> 10
